Measurements published in patent US20150164794A1, “METHOD FOR PREPARING AQUEOUS NANOPARTICLE SUSPENSIONS OF DERIVATIVES OF 4,9-DIHYDROXY-NAPHTHO[2,3-b]FURAN ALIPHATIC ACID ESTERS” (Zhoushan Haizhongzhou Xinsheng Pharmaceuticals, Co., Ltd., priority 2012, published 2015).
Where two headings read alike, the source gives them in different places.

Assay: Pharmacokinetic study of nanoparticle suspension NS-I-4 in ICR mice
Type: in vivo
Settings: for MRT last: read-out: MRT(0-t); for MRT inf: read-out: MRT(0-∞); for Vd: read-out: Vz
Description: Nanoparticle suspension NS-I-4, prepared according to the method as described in example 5, was administered intravenously into ICR mice at a dosage of 30 mg/kg. At different time points (5 min, 10 min, 30 min, 1 h, 2 h, 3 h, 4 h, 6 h) after the drug injection, blood samples were withdrawn from the dosed mice, and then were centrifuged at 6,000 rpm for 10 minutes at 4° C. The supernatant plasma samples were fetched and treated with 9 times volume of acetonitrile containing 0.5% trifluoromethane sulfonic acid. The treated plasmas were centrifuged at 12,000 rpm for 15 minutes at 4° C., and then the supernatants were fetched and analyzed with HPLC.
During treatment of blood samples before HPLC analysis, active drug 2-acetyl-4,9-dihydroxy-naphtho[2,3-b]furan and active metabolite 2-(1-hydroxyl)ethyl-4,9-dihydroxy-naphtho[2,3-b]furan are both oxidized into 2-acetyl-naphtho[2,3-b]furan-4,9-dione and 2-(1-hydroxyl)ethyl-naphtho[2,3-b]furan-4,9-dione, respectively (see scheme 1).
Scheme 1: Compound I is degraded by esterases into active drug, which is further metabolized into active metabolite. During pre-treatment for HPLC analysis, active drug and metabolite are oxidized by oxygen from air to oxidized drug and oxidized metabolite, respectively.
The Waters HPLC system used in this study includes: 1525 dual pump, 2998 photodiode array detector, 2707 auto sampler, Breeze 2 control and analysis software. The HPLC column used in this study: Phenomenex Luna C18, 250×4.60 mm 5 micron. The HPLC mobile phase: buffer A, 80% water, 20% acetonitrile; buffer B, 10% water, 70% acetonitrile, 20% tetrahydrofuran. The HPLC mobile phase gradient: 0-3 min, 50% buffer B to 50% buffer B, 3-10 min, 50% buffer B to 100% buffer B, 10-20 min, 100% buffer B to 100% buffer B, 20-22 min, 100% buffer B−50% buffer B, 22-25 min, 50% buffer B to 50% buffer B; flow rate, 1 ml/min.
Time courses of compound I, oxidized drug and oxidized active metabolite are illustrated in FIG. 2.

[1] = analyte in mouse plasma after NS-I-4 intravenously 30 mg/kg, ICR mice
[2] = iv, analyte in mouse plasma after NS-I-4 intravenously 30 mg/kg, ICR mice
[3] = iv, analyte in mouse plasma after NS-I-4 intravenously 30 mg/kg, ICR mice, read-out: AUC(0-t)
[4] = iv, analyte in mouse plasma after NS-I-4 intravenously 30 mg/kg, ICR mice, read-out: Cmax
[5] = iv, analyte in mouse plasma after NS-I-4 intravenously 30 mg/kg, ICR mice, read-out: Tmax

Row | SMILES | AUC(0-t) [1] [ng·h/mL] | AUC(0-∞) [1] [ng·h/mL] | CLz [1] [mL/min/kg] | Cmax [1] [ng/mL] | MRT(0-t) [1] [min] | MRT(0-∞) [1] [min] | Tmax [1] [min] | Vz [1] [L/kg] | t1/2z [1] [min] | AUC(0-inf) [2] [ng·h/mL] | AUC(0-t) [3] [ng·h/mL] | Cmax [4] [ng/mL] | MRT last [2] [min] | MRT inf [2] [min] | Tmax [5] [min] | Vd [2] [L/kg] | metabolic fate (administered intravenously into ICR mice)
1 | CC(O)c1cc2c(o1)C(=O)c1ccccc1C2=O (stereo not shown) [2-(1-hydroxy)ethyl-naphtho[2,3-b]furan-4,9-dione] | 3801 | 3999 | 250.07 | 1695 | 86.28 | 97.68 | 30 | 19.051 | 52.8 |  |  |  |  |  |  |  | 
2 | CC(=O)c1cc2c(o1)C(=O)c1ccccc1C2=O [2-acetyl-naphtho[2,3-b]furan-4,9-dione] |  |  | 58.62 |  |  |  |  |  | 184.4 | 8530 | 7420 | 6130 | 74.9 | 147 | 10 | 15.6 | 
3 | CCCCCCCC(=O)Oc1c2ccccc2c(OC(=O)CCCCCCC)c2oc(C(C)=O)cc12 [Compound I, 2-acetyl-4,9-bis(octanoyloxy)-naphtho[2,3-b]furan] |  |  | 1.97 |  |  |  |  |  | 23.8 | 255000 | 255000 | 288000 | 37.7 | 37.7 | 10 | 0.067 | degraded by esterases into active drug 2-acetyl-4,9-dihydroxy-naphtho[2,3-b]furan
